Experimental data: US20240190842A1, “SUBSTITUTED QUINOLINONE-8-CARBONITRILE DERIVATIVES HAVING ANDROGEN DEGRADATION ACTIVITY AND USES THEREOF” (Accutar Biotechnology Inc., priority 2022, published 2024)

What was measured:
VCAP cells = assay: Inhibition of R1881 stimulated cell growth in VCAP cells (CellTiter-Glo); assay type: cell-based; details: Homo sapiens, 144 h, 10% CSS, 6 days
Experimental: (§1) LNCAP and VCAP cells were seeded in 96-well plates at 5000 (LNCAP) and 6000 (VCAP) cells/well in phenol red-free RPM11640 supplemented with 10% charcoal stripped serum (CSS), and then incubated at 37° C. overnight. The following day, the test compound was administered to the cells by using 1000× compound stock solution prepared in DMSO at various concentrations. 1000× compound stock solution was first diluted 1:100 in phenol red-free RPM11640 supplemented with 10% CSS and 1 nM R1881 to prepare the 10× treatment solutions containing serial dilutions of AC176 together in the presence of 1 nM, and then 10 uL compound medium was added to each well in the cell plates. After administration of the compound, the cells were then incubated at 37° C. for 6 days. Upon completion, the plates were equilibrated at room temperature for approximately 10 minutes. 100 ul of CellTiter-Glo® 3D Reagent (Promega) was added to each well. The plates were then incubated at room temperature for 30 minutes and luminescence was recorded by EnSpire plate reader (PerkinElmer). The results are shown in Table 5, which summarizes the growth inhibition (G150) in LNCAP and VCAP cells with exemplary compounds of the present disclosure.

LNCAP cells = assay: Inhibition of R1881 stimulated cell growth in LNCAP cells (CellTiter-Glo); assay type: cell-based; details: Homo sapiens, 144 h, 10% CSS, 6 days
Experimental: as §1

Compound	GI50 (VCAP cells) [µM]	GI50 (LNCAP cells) [µM]
CC1(C)[C@H](NC(=O)c2ccc(N3CCC(CN4CCN(c5ccc6c(c5)CN([C@H]5CCC(=O)NC5=O)C6=O)CC4)CC3)c(F)c2)C(C)(C)[C@H]1Oc1ccc(C#N)c2[nH]c(=O)ccc12 [Compound 16, N-((1,3-trans)-3-((8-cyano-2-oxo-1,2-dihydroquinolin-5-yl)oxy)-2,2,4,4-tetramethylcyclobutyl)-4-(4-((4-(2-((S)-2,6-dioxopiperidin-3-yl)-1-oxoisoindolin-5-yl)piperazin-1-yl)methyl)piperidin-1-yl)-3-fluorobenzamide]	≤ 0.05	≤ 0.05
CC1(C)C(NC(=O)c2ccc(N3CCC(CN4CCN(c5ccc6c(c5)CN([C@H]5CCC(=O)NC5=O)C6=O)CC4)CC3)cc2)C(C)(C)C1Oc1ccc(C#N)c2[nH]c(=O)ccc12 (stereo partly drawn) [Compound 18, N-((1,3-trans)-3-((8-cyano-2-oxo-1,2-dihydroquinolin-5-yl)oxy)-2,2,4,4-tetramethylcyclobutyl)-4-(4-((4-(2-((S)-2,6-dioxopiperidin-3-yl)-1-oxoisoindolin-5-yl)piperazin-1-yl)methyl)piperidin-1-yl)benzamide]	≤ 0.05	≤ 0.05
CC1(C)C(NC(=O)c2ccc(N3CCC(CN4CCN(c5ccc6c(c5)C(=O)N(C5CCC(=O)NC5=O)C6=O)CC4)CC3)cc2)C(C)(C)C1Oc1ccc(C#N)c2[nH]c(=O)ccc12 (stereo not drawn) [Compound 20, N-((1,3-trans)-3-((8-cyano-2-oxo-1,2-dihydroquinolin-5-yl)oxy)-2,2,4,4-tetramethylcyclobutyl)-4-(4-((4-(2-(2,6-dioxopiperidin-3-yl)-1,3-dioxoisoindolin-5-yl)piperazin-1-yl)methyl)piperidin-1-yl)benzamide]	0.05 to 0.5	> 0.5
CC1(C)C(NC(=O)c2ccc(N3CCC(CN4CCN(c5ccc6c(c5)CN([C@H]5CCC(=O)NC5=O)C6=O)CC4)CC3)cc2)C(C)(C)C1Oc1ccc(C#N)c2[nH]ccc(=O)c12 (stereo partly drawn) [Compound 30, N-((1,3-trans)-3-((8-cyano-4-oxo-1,4-dihydroquinolin-5-yl)oxy)-2,2,4,4-tetramethylcyclobutyl)-4-(4-((4-(2-((S)-2,6-dioxopiperidin-3-yl)-1-oxoisoindolin-5-yl)piperazin-1-yl)methyl)piperidin-1-yl)benzamide]	≤ 0.05	≤ 0.05
Cn1c(=O)ccc2c(OC3C(C)(C)C(NC(=O)c4ccc(N5CCC(CN6CCN(c7ccc8c(c7)CN([C@H]7CCC(=O)NC7=O)C8=O)CC6)CC5)cc4)C3(C)C)ccc(C#N)c21 (stereo partly shown) [Compound 34]	≤ 0.05	≤ 0.05
Cn1ccc(=O)c2c(O[C@H]3C(C)(C)[C@H](NC(=O)c4ccc(N5CCC(CN6CCN(c7ccc8c(c7)CN([C@H]7CCC(=O)NC7=O)C8=O)CC6)CC5)cc4)C3(C)C)ccc(C#N)c21 [Compound 39, N-((1,3-trans)-3-((8-cyano-1-methyl-4-oxo-1,4-dihydroquinolin-5-yl)oxy)-2,2,4,4-tetramethylcyclobutyl)-4-(4-((4-(2-((S)-2,6-dioxopiperidin-3-yl)-1-oxoisoindolin-5-yl)piperazin-1-yl)methyl)piperidin-1-yl)benzamide]	≤ 0.05	≤ 0.05
CC1(C)C(NC(=O)c2ccc(N3CCC(CN4CCN(c5ccc(C(=O)N[C@H]6CCC(=O)NC6=O)nc5)CC4)CC3)cc2)C(C)(C)C1Oc1ccc(C#N)c2[nH]c(=O)ccc12 (stereo partly drawn) [Compound 43, 5-(4-((1-(4-(((1,3-trans)-3-((8-cyano-2-oxo-1,2-dihydroquinolin-5-yl)oxy)-2,2,4,4-tetramethylcyclobutyl)carbamoyl)phenyl)piperidin-4-yl)methyl)piperazin-1-yl)-N-((S)-2,6-dioxopiperidin-3-yl)picolinamide]	0.05 to 0.5	> 0.5
CC1(C)C(NC(=O)c2ccc(N3CCC(CN4CCN(c5ccc6c(=O)n(C7CCC(=O)NC7=O)ncc6c5)CC4)CC3)cc2)C(C)(C)C1Oc1ccc(C#N)c2[nH]c(=O)ccc12 (stereo not drawn) [Compound 49, N-((1,3-trans)-3-((8-cyano-2-oxo-1,2-dihydroquinolin-5-yl)oxy)-2,2,4,4-tetramethylcyclobutyl)-4-(4-((4-(2-(2,6-dioxopiperidin-3-yl)-1-oxo-1,2-dihydrophthalazin-6-yl)piperazin-1-yl)methyl)piperidin-1-yl)benzamide]	0.05 to 0.5	> 0.5
